The first series deals with T1, Jack bean urease (Canavalia ensiformis, UniProt P07374). In words: biochemical.
T1 sequence (P07374 whole entry, looked up): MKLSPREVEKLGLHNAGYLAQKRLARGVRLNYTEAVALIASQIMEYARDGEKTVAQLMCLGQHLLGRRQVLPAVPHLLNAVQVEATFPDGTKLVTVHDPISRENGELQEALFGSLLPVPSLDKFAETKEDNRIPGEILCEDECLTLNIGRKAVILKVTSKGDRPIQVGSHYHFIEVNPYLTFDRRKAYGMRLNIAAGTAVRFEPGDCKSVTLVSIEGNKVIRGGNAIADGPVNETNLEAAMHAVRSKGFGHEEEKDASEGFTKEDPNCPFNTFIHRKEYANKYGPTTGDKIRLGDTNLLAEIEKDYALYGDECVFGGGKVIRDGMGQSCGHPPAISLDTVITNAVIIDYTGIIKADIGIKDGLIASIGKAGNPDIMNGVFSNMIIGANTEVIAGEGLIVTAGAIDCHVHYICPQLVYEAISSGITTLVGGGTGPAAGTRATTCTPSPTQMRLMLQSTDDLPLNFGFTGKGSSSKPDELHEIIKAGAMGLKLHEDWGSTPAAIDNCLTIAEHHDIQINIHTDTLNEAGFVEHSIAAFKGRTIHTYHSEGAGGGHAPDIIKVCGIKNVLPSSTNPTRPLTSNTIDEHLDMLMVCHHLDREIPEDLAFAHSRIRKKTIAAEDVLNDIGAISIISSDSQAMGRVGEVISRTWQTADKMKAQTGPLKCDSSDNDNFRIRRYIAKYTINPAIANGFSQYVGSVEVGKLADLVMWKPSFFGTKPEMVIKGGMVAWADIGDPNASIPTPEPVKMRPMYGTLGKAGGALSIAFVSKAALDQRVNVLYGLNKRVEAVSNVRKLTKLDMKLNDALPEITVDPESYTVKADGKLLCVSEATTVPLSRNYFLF
Settings: not given
On the procedure:
The amount of NH3 produced with indophenol’s method reported in the literature was used to estimate Jack bean urease activity. In a 96-well plate, reaction mixtures containing 20 µL of Jack bean urease at 5 U/mL and 20 µL of compounds in 50 µL of potassium phosphate buffer (100 mM urea, 10 mM K2HPO4, 1 mM EDTA, and 10 mM LiCl, pH 8.2) were incubated for 30 min at 37 °C. Briefly, 50 μL each of phenol reagents (1%, w/v phenol and 0.005%, w/v sodium nitroprusside) and 50 μL of alkali reagent (0.5%, w/v NaOH and 0.1% NaOCl were added to each well. The absorbance at 625 nm was evaluated after 10 min by utilizing a microplate reader (OPTIMax, Tunable). Each of the reactions was accomplished in triplicate. The urease inhibition activities were calculated using the following formula:(1) Urease inhibition activity %=ODcontrol−ODsample×100/ODcontrol where ODcontrol and ODsample represent the optical densities in the absence and presence of sample, respectively, by using thiourea as standard.
On to `O=C(NC(=S)NC12CC3CC(CC(C3)C1)C2)c1ccc(F)cc1` [Compound 3a, N-(Adamantan-1-ylcarbamothioyl)-4-fluorobenzamide], for which the IC50 amounted to 10 nM.

With `O=C(NC(=S)NC12CC3CC(CC(C3)C1)C2)c1ccc(Cl)cc1Cl` [Compound 3b, N-(Adamantan-1-ylcarbamothioyl)-2,4-dichlorobenzamide], the IC50 was 10 nM.

Consider `CCCC(=O)NC(=S)NC12CC3CC(CC(C3)C1)C2` [Compound 3c, N-(Adamantan-1-ylcarbamothioyl)butyramide], for which half-maximal inhibition (IC50) was put at 30 nM.

Molecule `COc1ccc(C(=O)NC(=S)NC23CC4CC(CC(C4)C2)C3)cc1` [Compound 3d, N-(Adamantan-1-ylcarbamothioyl)-4-methoxybenzamide] returned an IC50 of 20 nM.

For `O=C(NC(=S)NC12CC3CC(CC(C3)C1)C2)c1ccc(Cl)cc1` [Compound 3e, N-(Adamantan-1-ylcarbamothioyl)-4-chlorobenzamide], half-maximal inhibition (IC50) was put at 30 nM.

`CCCCC(=O)NC(=S)NC12CC3CC(CC(C3)C1)C2` [Compound 3f, N-(Adamantan-1-ylcarbamothioyl)pentanamide] registered an IC50 of 30 nM.

`O=C(NC(=S)NC12CC3CC(CC(C3)C1)C2)c1ccccc1Cl` [Compound 3g, N-(Adamantan-1-ylcarbamothioyl)-2-chlorobenzamide] registered an IC50 of 8.7 nM.

For the molecule `CCCCCCC(=O)NC(=S)NC12CC3CC(CC(C3)C1)C2` [Compound 3h, N-(Adamantan-1-ylcarbamothioyl)heptanamide], 10 nM corresponded to half-maximal inhibition (IC50).

The molecule `O=C(NC(=S)NC12CC3CC(CC(C3)C1)C2)c1cc([N+](=O)[O-])cc([N+](=O)[O-])c1` [Compound 3i, N-(Adamantan-1-ylcarbamothioyl)-3,5-dinitrobenzamide] gave an IC50 of 10 nM.

The same series, now with this note: Jack bean urease, 30 min at 37 °C, pH 8.2; mean (SEM); read-out: Urease Activity IC50 ± SEM.
Regarding `NC(N)=S` [Thiourea, reference compound], the IC50 amounted to 4740 nM.

The target in a further series is T1, Jack bean urease. The series can be described thus: Kinetic analysis of urease inhibition (Lineweaver-Burk plot). The format is biochemical.
Settings: not given
From the text:
The kinetic studies of the enzyme by the Lineweaver–Burk plot of 1/V versus 1/[S] in the presence of different compound concentrations produced a series of straight lines (Figure 3A). […] Thus, compounds 3f inhibit the urease non-competitively in order to form an enzyme inhibitor complex.
Based on IC50 values, compound 3j was identified as the most powerful. Changing the concentration of urea at different concentrations of 3j (0.00, 0.0042, 0.0085, and 0.017 M) was used to study kinetics. For urease kinetics, the urea concentration was quickly adjusted from 100, 50, 25, 12.5, 6.25, and 3.12 mM. The highest preliminary velocities were determined from initial linear portion of absorbance up to 10 min after the addition of enzyme at per minute’s interval. The inhibition type was determined by Lineweaver-Burk plot (1/V) versus 1/[S] mM^−1. The EI dissociation constant Ki was ascertained by secondary plot of 1/V against inhibitor concentration. […] The results were processed by using SoftMaxPro.
Take `CCCCCCCC(=O)NC(=S)NC12CC3CC(CC(C3)C1)C2` [Compound 3j, N-(Adamantan-1-ylcarbamothioyl)octanamide]: the affinity, expressed as Ki, was 7 nM. That is a single-digit nanomolar value.

Staying with this series, now noted: Lineweaver-Burk plot.
In the case of `CCCCCCCC(=O)NC(=S)NC12CC3CC(CC(C3)C1)C2` [Compound 3j, N-(Adamantan-1-ylcarbamothioyl)octanamide], the “Inhibition Type” value is reported as “Non-Competitive”.

The same series, now with this note: inhibitor dose 0.0042 µM; substrate urea.
Take `CCCCCCCC(=O)NC(=S)NC12CC3CC(CC(C3)C1)C2` [Compound 3j, N-(Adamantan-1-ylcarbamothioyl)octanamide]: the Vmax is 0.001561 ΔA/Min.

The same series, now with this note: inhibitor dose 0.0085 µM; substrate urea.
Take `CCCCCCCC(=O)NC(=S)NC12CC3CC(CC(C3)C1)C2` [Compound 3j, N-(Adamantan-1-ylcarbamothioyl)octanamide]: the Vmax is recorded as 0.001224 ΔA/Min.

Staying with this series, now noted: inhibitor dose 0.017 µM; substrate urea.
In the case of `CCCCCCCC(=O)NC(=S)NC12CC3CC(CC(C3)C1)C2` [Compound 3j, N-(Adamantan-1-ylcarbamothioyl)octanamide], the Vmax is listed as 0.001208 ΔA/Min.

System in a further series: not listed separately
The series can be described thus: DPPH free radical scavenging assay. The conditions noted are these: 100 µg/mL, mean (SEM). On the procedure:
The 2,2-diphenyl-1-picrylhydrazyl (DPPH) test was used to assess radical scavenging activity. By using ascorbic acid as a reference inhibitor, 100 µL of DPPH ([…]), 20 µL of escalating concentrations of test compounds, and the volume adjusted to 200 µL in each well with methanol were incubated for 30 min at room temperature. At 517 nm, an OPTI Max Tunable microplate reader was used to perform assay measurements. The % inhibition caused by the investigated inhibitors was calculated after response rates were compared.
On the technique in general: DPPH is a stable violet radical that fades when it is reduced.
Turning to `O=C(NC(=S)NC12CC3CC(CC(C3)C1)C2)c1ccc(F)cc1` [Compound 3a, N-(Adamantan-1-ylcarbamothioyl)-4-fluorobenzamide], the “Free radical % Scavenging” value is recorded as 4.18 (0.03) %.

Take `O=C(NC(=S)NC12CC3CC(CC(C3)C1)C2)c1ccc(Cl)cc1Cl` [Compound 3b, N-(Adamantan-1-ylcarbamothioyl)-2,4-dichlorobenzamide]: the “Free radical % Scavenging” value was 1.46 (0.02) %.

With `CCCC(=O)NC(=S)NC12CC3CC(CC(C3)C1)C2` [Compound 3c, N-(Adamantan-1-ylcarbamothioyl)butyramide], the “Free radical % Scavenging” value is on record as 2.51 (0.00) %.

Turning to `COc1ccc(C(=O)NC(=S)NC23CC4CC(CC(C4)C2)C3)cc1` [Compound 3d, N-(Adamantan-1-ylcarbamothioyl)-4-methoxybenzamide], the “Free radical % Scavenging” value is reported as 1.86 (0.01) %.

In the case of `O=C(NC(=S)NC12CC3CC(CC(C3)C1)C2)c1ccc(Cl)cc1` [Compound 3e, N-(Adamantan-1-ylcarbamothioyl)-4-chlorobenzamide], the “Free radical % Scavenging” value is reported as 13.36 (0.01) %.

In the case of `CCCCC(=O)NC(=S)NC12CC3CC(CC(C3)C1)C2` [Compound 3f, N-(Adamantan-1-ylcarbamothioyl)pentanamide], the “Free radical % Scavenging” value is 4.26 (0.00) %.

`O=C(NC(=S)NC12CC3CC(CC(C3)C1)C2)c1ccccc1Cl` [Compound 3g, N-(Adamantan-1-ylcarbamothioyl)-2-chlorobenzamide]: the “Free radical % Scavenging” value is given as 1.12 (0.03) %.

Take `CCCCCCC(=O)NC(=S)NC12CC3CC(CC(C3)C1)C2` [Compound 3h, N-(Adamantan-1-ylcarbamothioyl)heptanamide]: the “Free radical % Scavenging” value is 15.36 (0.01) %.

Turning to `O=C(NC(=S)NC12CC3CC(CC(C3)C1)C2)c1cc([N+](=O)[O-])cc([N+](=O)[O-])c1` [Compound 3i, N-(Adamantan-1-ylcarbamothioyl)-3,5-dinitrobenzamide], the “Free radical % Scavenging” value is given as 5.91 (0.05) %.

In the case of `CCCCCCCC(=O)NC(=S)NC12CC3CC(CC(C3)C1)C2` [Compound 3j, N-(Adamantan-1-ylcarbamothioyl)octanamide], the “Free radical % Scavenging” value is reported as 9.96 (0.06) %.

For `O=C1O[C@H]([C@@H](O)CO)C(O)=C1O` [Vitamin C, ascorbic acid, reference compound], the “Free radical % Scavenging” value is listed as 95.15 (0.05) %.

System in another series: not given
Assay: not given
Settings: not given
The molecule `O=C(NC(=S)NC12CC3CC(CC(C3)C1)C2)c1ccc(F)cc1` [Compound 3a, N-(Adamantan-1-ylcarbamothioyl)-4-fluorobenzamide] came in with a melting point of 180 to 182 °C.

In the case of `O=C(NC(=S)NC12CC3CC(CC(C3)C1)C2)c1ccc(Cl)cc1Cl` [Compound 3b, N-(Adamantan-1-ylcarbamothioyl)-2,4-dichlorobenzamide], the melting point was in the range of 204 to 205 °C.

In the case of `CCCC(=O)NC(=S)NC12CC3CC(CC(C3)C1)C2` [Compound 3c, N-(Adamantan-1-ylcarbamothioyl)butyramide], the melting point was 136 to 137 °C.

`COc1ccc(C(=O)NC(=S)NC23CC4CC(CC(C4)C2)C3)cc1` [Compound 3d, N-(Adamantan-1-ylcarbamothioyl)-4-methoxybenzamide] yielded a melting point of 178 to 179 °C.

`O=C(NC(=S)NC12CC3CC(CC(C3)C1)C2)c1ccc(Cl)cc1` [Compound 3e, N-(Adamantan-1-ylcarbamothioyl)-4-chlorobenzamide] registered a melting point of 182 to 183 °C.

In turn, `CCCCC(=O)NC(=S)NC12CC3CC(CC(C3)C1)C2` [Compound 3f, N-(Adamantan-1-ylcarbamothioyl)pentanamide] gave a melting point of 141 to 142 °C.

`O=C(NC(=S)NC12CC3CC(CC(C3)C1)C2)c1ccccc1Cl` [Compound 3g, N-(Adamantan-1-ylcarbamothioyl)-2-chlorobenzamide] showed a melting point of 185 to 187 °C.

`CCCCCCC(=O)NC(=S)NC12CC3CC(CC(C3)C1)C2` [Compound 3h, N-(Adamantan-1-ylcarbamothioyl)heptanamide]: the melting point is 149 to 151 °C.

In the case of `O=C(NC(=S)NC12CC3CC(CC(C3)C1)C2)c1cc([N+](=O)[O-])cc([N+](=O)[O-])c1` [Compound 3i, N-(Adamantan-1-ylcarbamothioyl)-3,5-dinitrobenzamide], the melting point lay in the range of 210 to 211 °C.

Molecule `CCCCCCCC(=O)NC(=S)NC12CC3CC(CC(C3)C1)C2` [Compound 3j, N-(Adamantan-1-ylcarbamothioyl)octanamide] had a melting point of 158 to 159 °C.

In general, IC50 refers to the concentration that inhibits the measured activity by half. The term Ki denotes the equilibrium dissociation constant of an inhibitor or competing ligand from its target. As a reminder, the melting point is the temperature, or range, at which the solid turns liquid.

Values taken from publication PMC8658948, “Exploring Amantadine Derivatives as Urease Inhibitors: Molecular Docking and Structure–Activity Relationship (SAR) Studies” (Molecules, 2021).
